Test results: US6706740B2, “Fungicidal heterocyclic aromatic amides and their compositions, methods of use and preparation” (Dow AgroSciences LLC, priority 1999, dated 2004)

Columns and labels:
[1] = tested on: Phytophthora infestans—PHYTIN; assay: whole plant or invertebrate; type: in vivo; settings: Phytophthora, in Solanum lycopersicum, 24 h, read-out: PHYTIN in vivo 1 Day Protectant
[2] = tested on: Stagonospora nodorum (Leptosphaeria nodorum—LEPTNO); assay: In vitro fungal growth inhibition, Stagonospora nodorum (LEPTNO); type: cell-based; settings: Leptosphaeria; 25 ppm in growth medium; read-out: LEPTNO in vitro Growth Inhibition
[3] = tested on: Puccinia recondita—PUCCRT; assay: Brown Rust of Wheat, in vivo whole plant, 24 Hour Protectant; settings: Puccinia; 100 ppm spray, 24 hour protectant, wheat; control of fungal infection vs untreated plants; read-out: PUCCRT in vivo 1 Day Protectant
[4] = tested on: Magnaporthe grisea (Pyricularia oryzae—PYRIOR); assay: microbe, parasite or virus in culture; type: cell-based; settings: Pyricularia oryzae, read-out: PYRIOR in vitro Growth Inhibition
[5] = tested on: Leptosphaeria nodorum—LEPTNO; assay: Glume Blotch of Wheat, in vivo whole plant, 24 Hour Protectant; settings: Leptosphaeria; 100 ppm spray, 24 hour protectant, wheat; control of fungal infection vs untreated plants; read-out: LEPTNO in vivo 1 Day Protectant
[6] = tested on: Phytophthora infestans (PHYTIN); assay: microbe, parasite or virus in culture; type: cell-based; settings: Phytophthora infestans, read-out: PHYTIN in vitro Growth Inhibition
Septoria tritici—SEPTTR = assay: Leaf Blotch of Wheat, in vivo whole plant, 24 Hour Protectant; settings: Zymoseptoria tritici, 24 h, 100 ppm spray, 24 hour protectant, wheat; control of fungal infection vs untreated plants; read-out: SEPTTR in vivo 1 Day Protectant
Ustilago maydis (USTIMA) = assay: microbe, parasite or virus in culture; type: cell-based; settings: Mycosarcoma maydis, read-out: USTIMA in vitro Growth Inhibition
Erysiphe graminis—ERYSGT = assay: Powdery Mildew of Wheat, in vivo whole plant, 24 Hour Protectant; settings: Erysiphe; 100 ppm spray, 24 hour protectant, wheat; control of fungal infection vs untreated plants; read-out: ERYSGT in vivo 1 Day Protectant
[7] = tested on: Mycosphaerella graminicola (Septoria tritici—SEPTTR); assay: In vitro fungal growth inhibition, Mycosphaerella graminicola (SEPTTR); type: cell-based; settings: Zymoseptoria tritici; 25 ppm in growth medium; read-out: SEPTTR in vitro Growth Inhibition
[8] = tested on: Rhizoctonia solani (RHIZSO); assay: microbe, parasite or virus in culture; type: cell-based; settings: Rhizoctonia solani, read-out: RHIZSO in vitro Growth Inhibition

O=C(NC1CCC(O)CC1)c1ncccc1O (stereo not drawn) [Compound 208]
25 to 74%: pest or weed control at 100 ppm [1] | pest or weed control at 100 ppm [3]
112 to 115 °C: melting point
< 80%: inhibition at 25 ppm [2] | inhibition at 25 ppm [4] | inhibition at 25 ppm [6] | inhibition at 25 ppm (Ustilago maydis (USTIMA)) | inhibition at 25 ppm [7] | inhibition at 25 ppm [8]
< 25%: pest or weed control at 100 ppm [5] | pest or weed control at 100 ppm (Septoria tritici—SEPTTR) | pest or weed control at 100 ppm (Erysiphe graminis—ERYSGT)

CC(=O)OC1CCC(NC(=O)c2ncccc2O)CC1 (stereo not drawn) [Compound 209]
123 to 126 °C: melting point
< 80%: inhibition at 25 ppm [2] | inhibition at 25 ppm [4] | inhibition at 25 ppm [6] | inhibition at 25 ppm (Ustilago maydis (USTIMA)) | inhibition at 25 ppm [7] | inhibition at 25 ppm [8]
25 to 74%: pest or weed control at 100 ppm (Septoria tritici—SEPTTR)
< 25%: pest or weed control at 100 ppm [1] | pest or weed control at 100 ppm [3] | pest or weed control at 100 ppm [5] | pest or weed control at 100 ppm (Erysiphe graminis—ERYSGT)

CC(C)C(=O)OC1CCC(NC(=O)c2ncccc2O)CC1 (stereo not drawn) [Compound 210]
25 to 74%: pest or weed control at 100 ppm (Septoria tritici—SEPTTR)
139 to 142 °C: melting point
< 80%: inhibition at 25 ppm [2] | inhibition at 25 ppm [4] | inhibition at 25 ppm [6] | inhibition at 25 ppm (Ustilago maydis (USTIMA)) | inhibition at 25 ppm [7] | inhibition at 25 ppm [8]
< 25%: pest or weed control at 100 ppm [1] | pest or weed control at 100 ppm [3] | pest or weed control at 100 ppm [5] | pest or weed control at 100 ppm (Erysiphe graminis—ERYSGT)

O=C(OC1CCC(NC(=O)c2ncccc2O)CC1)c1ccccc1 (stereo not drawn) [Compound 211]
< 25%: pest or weed control at 100 ppm [1] | pest or weed control at 100 ppm [3] | pest or weed control at 100 ppm (Erysiphe graminis—ERYSGT)
154 to 157 °C: melting point
< 80%: inhibition at 25 ppm [2] | inhibition at 25 ppm [4] | inhibition at 25 ppm [6] | inhibition at 25 ppm (Ustilago maydis (USTIMA)) | inhibition at 25 ppm [7] | inhibition at 25 ppm [8]
25 to 74%: pest or weed control at 100 ppm [5] | pest or weed control at 100 ppm (Septoria tritici—SEPTTR)

O=C(Nc1cccc(Cl)c1)c1ncccc1O [Compound 212]
131 to 132 °C: melting point
< 25%: pest or weed control at 100 ppm [1] | pest or weed control at 100 ppm [3] | pest or weed control at 100 ppm [5] | pest or weed control at 100 ppm (Septoria tritici—SEPTTR) | pest or weed control at 100 ppm (Erysiphe graminis—ERYSGT)
> 80%: inhibition at 25 ppm [4]
< 80%: inhibition at 25 ppm [2] | inhibition at 25 ppm [6] | inhibition at 25 ppm (Ustilago maydis (USTIMA)) | inhibition at 25 ppm [7] | inhibition at 25 ppm [8]

COc1cc(NC(=O)c2ncccc2O)cc(OC)c1 [Compound 216]
> 80%: inhibition at 25 ppm [4]
< 25%: pest or weed control at 100 ppm [1] | pest or weed control at 100 ppm [3] | pest or weed control at 100 ppm [5] | pest or weed control at 100 ppm (Septoria tritici—SEPTTR) | pest or weed control at 100 ppm (Erysiphe graminis—ERYSGT)
127 to 129 °C: melting point
< 80%: inhibition at 25 ppm [2] | inhibition at 25 ppm [6] | inhibition at 25 ppm (Ustilago maydis (USTIMA)) | inhibition at 25 ppm [7] | inhibition at 25 ppm [8]

O=C(Nc1ccc(Oc2ccc(C(F)(F)F)cc2)cc1)c1ncccc1O [Compound 217]
131 to 133 °C: melting point
< 25%: pest or weed control at 100 ppm [1] | pest or weed control at 100 ppm [3] | pest or weed control at 100 ppm [5] | pest or weed control at 100 ppm (Septoria tritici—SEPTTR)
25 to 74%: pest or weed control at 100 ppm (Erysiphe graminis—ERYSGT)
< 80%: inhibition at 25 ppm [2] | inhibition at 25 ppm [4] | inhibition at 25 ppm [6] | inhibition at 25 ppm (Ustilago maydis (USTIMA)) | inhibition at 25 ppm [7] | inhibition at 25 ppm [8]

O=C(NCc1ccccc1Cl)c1ncccc1O [Compound 218]
> 80%: inhibition at 25 ppm [2] | inhibition at 25 ppm [4] | inhibition at 25 ppm [6] | inhibition at 25 ppm (Ustilago maydis (USTIMA)) | inhibition at 25 ppm [8]
< 80%: inhibition at 25 ppm [7]
97 to 99 °C: melting point
< 25%: pest or weed control at 100 ppm [1] | pest or weed control at 100 ppm [3] | pest or weed control at 100 ppm [5] | pest or weed control at 100 ppm (Septoria tritici—SEPTTR) | pest or weed control at 100 ppm (Erysiphe graminis—ERYSGT)

O=C(NCc1cccc(Cl)c1)c1ncccc1O [Compound 219]
> 80%: inhibition at 25 ppm [2] | inhibition at 25 ppm [4] | inhibition at 25 ppm [6] | inhibition at 25 ppm (Ustilago maydis (USTIMA)) | inhibition at 25 ppm [7] | inhibition at 25 ppm [8]
65 to 67 °C: melting point
< 25%: pest or weed control at 100 ppm [1] | pest or weed control at 100 ppm [3] | pest or weed control at 100 ppm [5] | pest or weed control at 100 ppm (Septoria tritici—SEPTTR) | pest or weed control at 100 ppm (Erysiphe graminis—ERYSGT)

O=C(NCc1ccc(Cl)cc1)c1ncccc1O [Compound 220]
> 80%: inhibition at 25 ppm [2] | inhibition at 25 ppm [4] | inhibition at 25 ppm [6] | inhibition at 25 ppm (Ustilago maydis (USTIMA)) | inhibition at 25 ppm [7] | inhibition at 25 ppm [8]
25 to 74%: pest or weed control at 100 ppm [1]
< 25%: pest or weed control at 100 ppm [3] | pest or weed control at 100 ppm [5] | pest or weed control at 100 ppm (Septoria tritici—SEPTTR) | pest or weed control at 100 ppm (Erysiphe graminis—ERYSGT)
95 to 97 °C: melting point

O=C(NCc1ccc(Cl)c(Cl)c1)c1ncccc1O [Compound 221]
< 80%: inhibition at 25 ppm [2] | inhibition at 25 ppm (Ustilago maydis (USTIMA)) | inhibition at 25 ppm [8]
100 to 101 °C: melting point
< 25%: pest or weed control at 100 ppm [1] | pest or weed control at 100 ppm [3] | pest or weed control at 100 ppm [5] | pest or weed control at 100 ppm (Septoria tritici—SEPTTR) | pest or weed control at 100 ppm (Erysiphe graminis—ERYSGT)
> 80%: inhibition at 25 ppm [4] | inhibition at 25 ppm [6] | inhibition at 25 ppm [7]

Cc1ccc(CNC(=O)c2ncccc2O)cc1 [Compound 223]
> 80%: inhibition at 25 ppm [2] | inhibition at 25 ppm [4] | inhibition at 25 ppm [6] | inhibition at 25 ppm (Ustilago maydis (USTIMA))
< 25%: pest or weed control at 100 ppm [1] | pest or weed control at 100 ppm [3] | pest or weed control at 100 ppm [5] | pest or weed control at 100 ppm (Septoria tritici—SEPTTR) | pest or weed control at 100 ppm (Erysiphe graminis—ERYSGT)
83 to 84 °C: melting point
< 80%: inhibition at 25 ppm [7] | inhibition at 25 ppm [8]

COc1ccccc1CNC(=O)c1ncccc1O [Compound 224]
< 80%: inhibition at 25 ppm [2] | inhibition at 25 ppm [6] | inhibition at 25 ppm (Ustilago maydis (USTIMA)) | inhibition at 25 ppm [7] | inhibition at 25 ppm [8]
< 25%: pest or weed control at 100 ppm [1] | pest or weed control at 100 ppm [3] | pest or weed control at 100 ppm [5] | pest or weed control at 100 ppm (Septoria tritici—SEPTTR) | pest or weed control at 100 ppm (Erysiphe graminis—ERYSGT)
75 to 76 °C: melting point
> 80%: inhibition at 25 ppm [4]

COc1cccc(CNC(=O)c2ncccc2O)c1 [Compound 225]
41 to 43 °C: melting point
> 80%: inhibition at 25 ppm [6]
< 25%: pest or weed control at 100 ppm [1] | pest or weed control at 100 ppm [3] | pest or weed control at 100 ppm [5] | pest or weed control at 100 ppm (Septoria tritici—SEPTTR) | pest or weed control at 100 ppm (Erysiphe graminis—ERYSGT)
< 80%: inhibition at 25 ppm [2] | inhibition at 25 ppm [4] | inhibition at 25 ppm (Ustilago maydis (USTIMA)) | inhibition at 25 ppm [7] | inhibition at 25 ppm [8]

COc1ccc(CNC(=O)c2ncccc2O)cc1 [Compound 226]
< 80%: inhibition at 25 ppm [2] | inhibition at 25 ppm [4] | inhibition at 25 ppm (Ustilago maydis (USTIMA)) | inhibition at 25 ppm [7] | inhibition at 25 ppm [8]
25 to 74%: pest or weed control at 100 ppm (Erysiphe graminis—ERYSGT)
96 to 97 °C: melting point
< 25%: pest or weed control at 100 ppm [1] | pest or weed control at 100 ppm [3] | pest or weed control at 100 ppm [5] | pest or weed control at 100 ppm (Septoria tritici—SEPTTR)
> 80%: inhibition at 25 ppm [6]

COc1cccc(CNC(=O)c2ncccc2O)c1OC [Compound 227]
> 80%: inhibition at 25 ppm [6]
< 25%: pest or weed control at 100 ppm [1] | pest or weed control at 100 ppm [3] | pest or weed control at 100 ppm [5] | pest or weed control at 100 ppm (Septoria tritici—SEPTTR) | pest or weed control at 100 ppm (Erysiphe graminis—ERYSGT)
< 80%: inhibition at 25 ppm [2] | inhibition at 25 ppm [4] | inhibition at 25 ppm (Ustilago maydis (USTIMA)) | inhibition at 25 ppm [7] | inhibition at 25 ppm [8]
78 to 79 °C: melting point

O=C(NCc1cccc2ccccc12)c1ncccc1O [Compound 228]
106 to 109 °C: melting point
25 to 74%: pest or weed control at 100 ppm [1]
< 80%: inhibition at 25 ppm [2] | inhibition at 25 ppm [4] | inhibition at 25 ppm [6] | inhibition at 25 ppm (Ustilago maydis (USTIMA)) | inhibition at 25 ppm [7] | inhibition at 25 ppm [8]
< 25%: pest or weed control at 100 ppm [3] | pest or weed control at 100 ppm [5] | pest or weed control at 100 ppm (Septoria tritici—SEPTTR) | pest or weed control at 100 ppm (Erysiphe graminis—ERYSGT)

CC(NC(=O)c1ncccc1O)c1ccccc1 (stereo not drawn) [Compound 229]
89 to 91 °C: melting point
< 25%: pest or weed control at 100 ppm [1] | pest or weed control at 100 ppm [3] | pest or weed control at 100 ppm [5] | pest or weed control at 100 ppm (Septoria tritici—SEPTTR) | pest or weed control at 100 ppm (Erysiphe graminis—ERYSGT)
> 80%: inhibition at 25 ppm [4] | inhibition at 25 ppm [7]
< 80%: inhibition at 25 ppm [2] | inhibition at 25 ppm [6] | inhibition at 25 ppm (Ustilago maydis (USTIMA)) | inhibition at 25 ppm [8]
